Experimental data from patent US4309425A (priority 1980, dated 1982).
Like-named read-outs stand apart in the source and are kept apart here.

Tests used:
Pythium = Pythium infested soil test, cotton; type: in vivo; conditions: 1.5 kg/ha, 8 days
Source text: (§1) Pythium infested soil was placed in a 900 cc cup. Compounds of this invention were mixed at a rate of 1.5 kg/ha in a section 2" wide×2" deep×4" long to simulate an in-the-row application. Five cotton seeds were planted in the treated soil. After 8 days, the cotton plants were removed and rated for disease control.

Venturia inaequalis [1] = experiment: apple scab residual wash-off test; type: in vivo; conditions: 1/2 inch simulated rainfall, 10-12 days
Experimental: (§2) Compounds of this invention are dissolved in acetone in an amount equal to 6% of the final volume and then suspended at a concentration of 20 ppm in purified water containing 25 ppm of the surfactant Alkanol® XC (sodium alkyl naphthalene sulfonate). This suspension is sprayed to the point of run-off on apple seedlings. The following day, 1/2 inch of simulated rainfall is applied to the foliage of the plants. When the foliage is dry, the plants are inoculated with a spore suspension of the fungus Venturia inaequalis and incubated in a growth room for 10-12 days. Disease ratings are then made. […] Phytotoxicity in the form of foliar burn was observed on the plants in association with disease control.

Erysiphe cichoracearum [2] = experiment: cucumber powdery mildew residual wash-off test; type: in vivo; conditions: Golovinomyces cichoracearum, 168 h, 1/2 inch simulated rainfall, 7 days
Experimental: Compounds of this invention are dissolved in acetone in an amount equal to 6% of the final volume and then suspended at a concentration of 20 ppm in purified water containing 25 ppm of the surfactant Alkanol® XC (sodium alkyl naphthalene sulfonate). This suspension is sprayed to the point of run-off on cucumber seedlings. The following day, 1/2 inch of simulated rainfall is applied to the foliage of the plants. When the foliage is dry, the plants are inoculated with a spore suspension on the fungus Erysiphe cichoracearum and incubated in a growth room for 7 days. Disease ratings are then made.

Erysiphe cichoracearum [3] = experiment: cucumber powdery mildew photostability test; type: in vivo; conditions: Golovinomyces cichoracearum, 168 h, xenon arc 3500 foot candles 16 hours, 7 days
Experimental: (§3) Compounds of this invention are dissolved in acetone in an amount equal to 6% of the final volume and then suspended at a concentration of 20 ppm in purified water containing 25 ppm of the surfactant Alkanol® XC (sodium alkyl naphthalene sulfonate). This suspension is sprayed to the point of run-off in cucumber seedlings. When the foliage is dry, the plants are exposed to 3500 foot candles of light from a xenon arc source for a period of 16 hours. This light source approximates the spectrum of natural sunlight, and is used to assess photostability of the compounds of this invention on plant foliage. The following day, the plants are inoculated with a spore suspension of the fungus Erysiphe cichoracearum and incubated in a growth room for 7 days. Disease ratings are then made.

Rhizoctonia solani = Rhizoctonia solani infested soil test, cotton; type: in vivo; conditions: 192 h, 1.5 kg/ha, 8 days
Source text: as §1, with “Rhizoctonia solani-infested” for “Pythium infested”

[4] = system: Eggs of the beet armyworm (Spodoptera exigua); experiment: beet armyworm egg (ovicidal) test, % eggs failing to hatch; type: in vivo; conditions: 72 h, three days, read-out: % Control (% eggs failing to hatch); for mortality at 1 %: 1% in acetone; for mortality at 200 ppm: 200 ppm in acetone
Experimental: Eggs of the beet armyworm (Spodoptera exigua), laid on cellophane discs each containing 50-75 eggs, were placed in petri dishes and lightly sprayed with 1% concentrations of the indicated compounds in acetone solution. Three days later, percent control (% eggs failing to hatch) was determined.
Eggs of the beet armyworm (Spodoptera exigua), laid on cellophane discs each containing 50-75 eggs, were placed in petri dishes and lightly sprayed with 200 ppm concentration of the indicated compounds in acetone solution. Three days later, percent control (% eggs failing to hatch) was determined.

[5] = system: Puccinia graminis var. tritici; experiment: whole plant or invertebrate; type: in vivo; conditions: 192 h, read-out: % control wheat rust in residual wash-off test
Venturia inaequalis [6] = experiment: apple scab photostability test; type: in vivo; conditions: xenon arc 3500 foot candles 16 hours, 10-12 days
Experimental: as §3, with “on apple” for “in cucumber”, “Venturia inaequalis” for “Erysiphe cichoracearum”, “10-12” for “7”, “made. […] Phytotoxicity in the form of foliar burn was observed on some of the plants in association with disease control.” for “made.”

Erisyphe cichoracearum = experiment: cucumber powdery mildew curative test; type: in vivo; conditions: Cucumis sativus, 144 h, sprayed day after inoculation, additional 6 days
Source text: Cucumber plants are inoculated with a spore suspension of the fungus Erisyphe cichoracearum and in a growth room overnight. The following day, the plants are sprayed to the point of run-off with a suspension prepared by dissolving compounds of this invention in acetone in an amount equal to 6% of the final volume and then suspended at a concentration of 20 ppm in purified water containing 25 ppm of the surfactant Alkanol® XC (sodium alkyl naphthalene sulfonate). Plants are returned to the growth room for an additional 6 days when disease ratings are then made. […] Phytotoxicity in the form of foliar burn or growth reduction was observed on some of the plants in association with disease control.

[7] = system: Puccinia graminis var. tritici; experiment: whole plant or invertebrate; type: in vivo; conditions: 192 h, read-out: % control wheat rust in a photostability test
adult houseflies = adult houseflies spray test; type: in vivo, housefly; conditions: Musca domestica; 1% acetone solutions, 24 hours
Source text: Twenty adult houseflies were confined in each of several cylindrical stainless steel cages (7.5 cm D×4 cm high) with wire screens of the ends. These were sprayed with 1% acetone solutions of the indicated compounds.

Erysiphe cichoracearum [8] = experiment: cucumber powdery mildew preventive test; type: in vivo; conditions: Golovinomyces cichoracearum, 168 h, 7 days
Experimental: Compounds of this invention are dissolved in acetone in an amount equal to 6% of the final volume and then suspended at a concentration of 20 ppm in purified water containing 25 ppm of the surfactant Alkanol® XC (sodium alkyl naphthalene sulfonate). This suspension is sprayed to the point of run-off on cucumber seedlings. The following day, the plants are inoculated with a spore suspension of the fungus Erysiphe cichoracearum and incubated in a growth room for 7 days. Disease ratings are then made. […] Phytotoxicity in the form of foliar burn or growth reduction was observed on some of the plants in association with disease control.

Phytophthora infestans [9] = experiment: whole plant or invertebrate; type: in vivo; conditions: in Solanum lycopersicum, 96 h, read-out: % control tomato late blight in a residual wash-off test
[10] = system: Puccinia graminis var. tritici; experiment: whole plant or invertebrate; type: in vivo; conditions: 192 h, read-out: % control wheat rust in preventive test
[11] = system: adult cotton boll weevils (Anthonomus grandis); experiment: adult cotton boll weevils spray test; type: in vivo; conditions: 1% acetone solution, 24 hours
Experimental: Five adult cotton boll weevils (Anthonomus grandis) were confined in a 4-oz. wide mouth jar. These were sprayed with a 1% acetone solution of the indicated compounds. Percent mortality after 24 hours is set forth below.

Phytophthora infestans [12] = experiment: whole plant or invertebrate; type: in vivo; conditions: in Solanum lycopersicum, 96 h, read-out: % control tomato late blight in a photostability test
Venturia inaequalis [13] = experiment: apple scab preventive test; type: in vivo; conditions: 10-12 days
Experimental: as §2, with “following day, the plants” for “following day, 1/2 inch of simulated rainfall is applied to the foliage of the plants. When the foliage is dry, the plants”, “observed on some of the plants” for “observed on the plants”

Phytophthora infestans [14] = type: in vivo; conditions: 20 ppm, 4 days

O=C1CCCN1SN(c1cc(C(F)(F)F)ccc1Cl)c1c([N+](=O)[O-])cc([N+](=O)[O-])cc1C(F)(F)F
% control Pythium (Pythium): 50% | pest or weed control at 20 ppm (Venturia inaequalis [1]): 75% | pest or weed control at 20 ppm (Erysiphe cichoracearum [2]): 30% | pest or weed control at 20 ppm (Erysiphe cichoracearum [3]): 97% | pest or weed control at 1500 g/ha (Rhizoctonia solani): 90% | mortality at 1 % [4]: 100% | pest or weed control at 20 ppm [5]: 100% | pest or weed control at 20 ppm (Venturia inaequalis [6]): 50% | pest or weed control at 20 ppm (Erisyphe cichoracearum): 100% | pest or weed control at 20 ppm [7]: 100% | mortality at 1 % (adult houseflies): 100% | pest or weed control at 20 ppm (Erysiphe cichoracearum [8]): 100% | pest or weed control at 20 ppm (Phytophthora infestans [9]): 50% | pest or weed control at 20 ppm [10]: 100% | mortality at 1 % [11]: 100%

COC(=O)CN(SN(c1cc(C(F)(F)F)ccc1Cl)c1c([N+](=O)[O-])cc([N+](=O)[O-])cc1C(F)(F)F)S(=O)(=O)c1ccc(C)cc1
% control Pythium (Pythium): 50% | pest or weed control at 20 ppm (Venturia inaequalis [1]): 0% | pest or weed control at 20 ppm (Erysiphe cichoracearum [2]): 0% | pest or weed control at 20 ppm (Phytophthora infestans [12]): 0% | pest or weed control at 20 ppm (Erysiphe cichoracearum [3]): 0% | pest or weed control at 1500 g/ha (Rhizoctonia solani): 50% | pest or weed control at 20 ppm (Venturia inaequalis [13]): 0% | pest or weed control at 20 ppm [5]: 25% | pest or weed control at 20 ppm (Venturia inaequalis [6]): 0% | % control tomato late blight in a preventive test (Phytophthora infestans [14]): 0% | pest or weed control at 20 ppm (Erisyphe cichoracearum): 0% | pest or weed control at 20 ppm [7]: 20% | pest or weed control at 20 ppm (Erysiphe cichoracearum [8]): 0% | pest or weed control at 20 ppm (Phytophthora infestans [9]): 0% | pest or weed control at 20 ppm [10]: 30%

CCCCN(SN(c1cc(C(F)(F)F)ccc1Cl)c1c([N+](=O)[O-])cc([N+](=O)[O-])cc1C(F)(F)F)S(=O)(=O)N(C)C
% control Pythium (Pythium): 0% | pest or weed control at 20 ppm (Venturia inaequalis [1]): 100% | pest or weed control at 20 ppm (Erysiphe cichoracearum [2]): 98% | pest or weed control at 20 ppm (Phytophthora infestans [12]): 90% | pest or weed control at 20 ppm (Erysiphe cichoracearum [3]): 80% | pest or weed control at 1500 g/ha (Rhizoctonia solani): 0% | mortality at 1 % [4]: 100% | pest or weed control at 20 ppm (Venturia inaequalis [13]): 100% | pest or weed control at 20 ppm [5]: 90% | pest or weed control at 20 ppm (Venturia inaequalis [6]): 0% | pest or weed control at 20 ppm (Erisyphe cichoracearum): 99% | pest or weed control at 20 ppm [7]: 80% | mortality at 1 % (adult houseflies): 100% | pest or weed control at 20 ppm (Erysiphe cichoracearum [8]): 100% | pest or weed control at 20 ppm (Phytophthora infestans [9]): 93% | pest or weed control at 20 ppm [10]: 100% | mortality at 1 % [11]: 100%

CN(SN(c1cc(C(F)(F)F)ccc1Cl)c1c([N+](=O)[O-])cc([N+](=O)[O-])cc1C(F)(F)F)S(=O)(=O)c1ccc2ccccc2c1
% control Pythium (Pythium): 0% | pest or weed control at 20 ppm (Venturia inaequalis [1]): 100% | pest or weed control at 20 ppm (Erysiphe cichoracearum [2]): 85% | pest or weed control at 20 ppm (Phytophthora infestans [12]): 100% | pest or weed control at 20 ppm (Erysiphe cichoracearum [3]): 75% | pest or weed control at 1500 g/ha (Rhizoctonia solani): 0% | mortality at 1 % [4]: 100% | pest or weed control at 20 ppm (Venturia inaequalis [13]): 50% | pest or weed control at 20 ppm [5]: 100% | pest or weed control at 20 ppm (Venturia inaequalis [6]): 0% | pest or weed control at 20 ppm (Erisyphe cichoracearum): 50% | pest or weed control at 20 ppm [7]: 100% | mortality at 1 % (adult houseflies): 100% | pest or weed control at 20 ppm (Erysiphe cichoracearum [8]): 100% | pest or weed control at 20 ppm (Phytophthora infestans [9]): 100% | pest or weed control at 20 ppm [10]: 100% | mortality at 1 % [11]: 100%

Cc1ccc(S(=O)(=O)N(C)SN(c2c(F)cc(F)cc2F)c2c([N+](=O)[O-])cc([N+](=O)[O-])cc2C(F)(F)F)cc1
% control Pythium (Pythium): 100% | pest or weed control at 20 ppm (Venturia inaequalis [1]): 100% | pest or weed control at 20 ppm (Erysiphe cichoracearum [2]): 100% | pest or weed control at 20 ppm (Phytophthora infestans [12]): 100% | pest or weed control at 20 ppm (Erysiphe cichoracearum [3]): 100% | pest or weed control at 1500 g/ha (Rhizoctonia solani): 70% | pest or weed control at 20 ppm (Venturia inaequalis [13]): 100% | pest or weed control at 20 ppm [5]: 97% | pest or weed control at 20 ppm (Venturia inaequalis [6]): 80% | % control tomato late blight in a preventive test (Phytophthora infestans [14]): 100% | pest or weed control at 20 ppm (Erisyphe cichoracearum): 99% | pest or weed control at 20 ppm [7]: 70% | pest or weed control at 20 ppm (Erysiphe cichoracearum [8]): 100% | pest or weed control at 20 ppm (Phytophthora infestans [9]): 100% | pest or weed control at 20 ppm [10]: 100%

CN(SN(c1cc(C(F)(F)F)ccc1Cl)c1c([N+](=O)[O-])cc([N+](=O)[O-])cc1C(F)(F)F)S(=O)(=O)c1ccc(Cl)cc1 [4-chloro-N-[N-(2-chloro-5-trifluoromethylphenyl)-N-(2,4-dinitro-6-trifluoromethylphenyl)aminothio]-N-methylbenzenesulfonamide]
mortality at 200 ppm [4]: 100%

COCCN(SN(c1cc(C(F)(F)F)ccc1Cl)c1c([N+](=O)[O-])cc([N+](=O)[O-])cc1C(F)(F)F)S(=O)(=O)c1ccc(C)cc1 [N-[N-[2-chloro-5-(trifluoromethyl)phenyl]-N-[2,4-dinitro-6-trifluoromethylphenyl]aminothio]-N-(2-methoxyethyl)-4-methylbenzenesulfonamide]
mortality at 200 ppm [4]: 100%
